In brackets after ≈: the same amount, converted by molar mass.

We go through two compounds from patent publication US6331547A, “Water soluble SDZ RAD esters” (American Home Products Corporation, priority 2000, dated 2001).

Test [1] relates to experimental allergic encephalomyelitis model. As to conditions: model for multiple sclerosis; cited from earlier work.
For test [2], the system named is U87MG Human Glioblastoma. Kind of test: U87MG human glioblastoma 3H thymidine incorporation. The test is classed as cell-based. How it is done:
U87MG Human Glioblastoma (ATCC # HTB-14)
3H Thymidine Incorporation Protocol
BRL Minimum Essential Medium with Earle Salts (500 ml)
+5 mLBRL MEM Non-Essential Amino Acids (10 mM)
+5 mLBRL Penicillin-Streptomycin
+5 mLBRL Na Pyruvate Solution (100 mM)
+5 mLBRL L-Glutamine 200 mM
+50 mLBRL Fetal Bovine Serum (Qualified)
1. Cells were trypsinized and plated at a concentration of 10^4 cells/well in a final volume of 200 μl growth medium in 96-well flat bottom plates and allowed to adhere for 24 hours at 37° C.
2. The media was removed by aspiration with care to not disturb the cell monolayer. 200 μl of fresh growth media was added per well, allowing enough wells for samples to be run in triplicate. Compounds were added in 10 μl PBS solutions and incubated for another 48 hours at 37° C.
3. During the last 5 hours of incubation, plates were labeled with 1 μCi 3H thymidine per well. (NEN thymidine, catalog # NET-027, 6.7 Ci/mmole). The 1 μCi was added in 10 μl of PBS (on the day of harvest.). The plates were returned to the incubator for the last 5 hours.
4. The radioactive media was removed by aspiration, with care not to disturb the cell monolayer. 50 μl of BRL 10×Trypsin was added to each well, followed by incubation at 37° C. for 10 minutes or until the monolayer was loosened from the well bottom. […] Mats were counted in a Wallac Betaplate counter.
On the technique in general: Dividing cells build labelled thymidine or BrdU into new DNA.

Test [3] deals with adjuvant arthritis model. As to conditions: model for rheumatoid arthritis; cited from earlier work.
In test [4] the test system is IgE-like antibodies. The note with it: in vivo; cited from earlier work.
Test [5] deals with Candida albicans. The note with it: particularly against Candida albicans, both in vitro and in vivo; cited from earlier work.
For test [6] the following is noted: alone; U.S. Pat. No. 4,885,171; cited from earlier work.
For test [7] the following is noted: U.S. Pat. No. 5,665,772; cited from earlier work.

Take `CO[C@H]1C[C@@H]2CC[C@@H](C)[C@@](O)(O2)C(=O)C(=O)N2CCCC[C@H]2C(=O)O[C@H]([C@H](C)C[C@@H]2CC[C@@H](O)[C@H](OC)C2)CC(=O)[C@H](C)/C=C(\C)[C@@H](O)[C@@H](OC)C(=O)[C@H](C)C[C@H](C)/C=C/C=C/C=C/1C` [Rapamycin]: in test [1], the “effect in the experimental allergic encephalomyelitis model” value is recorded as “effective”. Also, in test [2] (Homo sapiens, U-87 MG), the IC50 came out at 0.5 ng/mL (≈ 0.547 nM). Besides, in test [3], the “effect in the adjuvant arthritis model” value is given as “effective”. In addition, the “inhibition of the formation of IgE-like antibodies” value in test [4] is “effectively inhibited”. Moreover, in test [5], the antifungal activity entry is given as “found to have antifungal activity”. Further, in test [6], the antitumor activity entry is listed as “shown to have antitumor activity”.
`CO[C@H]1C[C@@H]2CC[C@@H](C)[C@@](O)(O2)C(=O)C(=O)N2CCCC[C@H]2C(=O)O[C@H]([C@H](C)C[C@@H]2CC[C@@H](OCCO)[C@H](OC)C2)CC(=O)[C@H](C)/C=C(\C)[C@@H](O)[C@@H](OC)C(=O)[C@H](C)C[C@H](C)/C=C/C=C/C=C/1C` [SDZ-RAD, 40-O-(2-hydroxy)ethyl-rapamycin] registered an IC50 in test [2] (3H thymidine incorporation, 48 hours incubation, 37° C., U87MG) of 2.0 ng/mL (≈ 2.09 nM). In test [7], the “immunosuppressive activity in animal model” value is on record as “has immunosuppressive activity”.

The term IC50 denotes the midpoint of a concentration-inhibition curve. Lower therefore signals higher potency.
